{"source": "patent US10189841B2", "about": "“Purinones as ubiquitin-specific protease 1 inhibitors” (Forma Therapeutics, Inc., priority 2015, dated 2019)", "molecular_target": "USP1 (construct USP1 (I-785, GG670, 671AA)/UAF1 (I-677)-Flag) (Homo sapiens (Human), UniProt O94782, G670A/G671A)", "sequence (O94782 whole entry G670A/G671A)": "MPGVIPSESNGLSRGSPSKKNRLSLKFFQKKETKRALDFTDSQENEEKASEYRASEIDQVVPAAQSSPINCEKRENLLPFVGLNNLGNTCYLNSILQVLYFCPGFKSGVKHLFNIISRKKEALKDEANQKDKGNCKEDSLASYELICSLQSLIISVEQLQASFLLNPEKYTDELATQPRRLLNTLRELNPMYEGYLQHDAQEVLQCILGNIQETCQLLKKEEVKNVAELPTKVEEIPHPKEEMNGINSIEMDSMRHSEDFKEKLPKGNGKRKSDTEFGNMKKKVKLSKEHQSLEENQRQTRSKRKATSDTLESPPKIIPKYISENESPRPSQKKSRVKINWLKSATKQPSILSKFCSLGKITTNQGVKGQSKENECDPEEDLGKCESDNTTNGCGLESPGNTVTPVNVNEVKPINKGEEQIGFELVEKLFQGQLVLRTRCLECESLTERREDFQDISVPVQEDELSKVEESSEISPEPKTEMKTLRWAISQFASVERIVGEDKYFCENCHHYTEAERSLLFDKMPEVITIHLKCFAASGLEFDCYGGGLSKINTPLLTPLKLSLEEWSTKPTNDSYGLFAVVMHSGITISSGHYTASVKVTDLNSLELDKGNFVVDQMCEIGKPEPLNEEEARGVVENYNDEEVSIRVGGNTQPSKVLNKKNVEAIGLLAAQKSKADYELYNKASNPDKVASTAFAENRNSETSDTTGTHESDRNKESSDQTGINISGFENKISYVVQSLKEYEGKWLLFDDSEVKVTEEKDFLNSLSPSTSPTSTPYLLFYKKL", "sequence (Q8TAF3 whole entry partner)": "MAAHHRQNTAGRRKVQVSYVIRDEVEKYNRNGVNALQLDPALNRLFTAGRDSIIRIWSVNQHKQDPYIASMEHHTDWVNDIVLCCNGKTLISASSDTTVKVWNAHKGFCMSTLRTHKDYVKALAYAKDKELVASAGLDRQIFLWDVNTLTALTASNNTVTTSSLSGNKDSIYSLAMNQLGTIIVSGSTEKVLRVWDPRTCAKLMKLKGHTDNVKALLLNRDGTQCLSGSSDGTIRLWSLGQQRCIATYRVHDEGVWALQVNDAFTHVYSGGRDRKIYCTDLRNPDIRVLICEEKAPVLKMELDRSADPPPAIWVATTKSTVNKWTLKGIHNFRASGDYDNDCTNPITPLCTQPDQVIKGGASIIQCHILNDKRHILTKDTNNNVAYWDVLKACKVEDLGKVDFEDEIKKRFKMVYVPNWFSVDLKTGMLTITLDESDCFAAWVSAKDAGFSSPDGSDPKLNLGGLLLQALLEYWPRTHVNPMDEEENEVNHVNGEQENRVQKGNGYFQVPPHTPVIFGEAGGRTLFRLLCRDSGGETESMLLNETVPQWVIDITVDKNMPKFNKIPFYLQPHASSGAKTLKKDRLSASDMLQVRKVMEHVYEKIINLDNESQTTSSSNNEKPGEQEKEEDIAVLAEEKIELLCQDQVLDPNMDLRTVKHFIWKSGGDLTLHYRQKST", "assay": "Ubiquitin-Rhodamine 110 assay for USP1 activity", "type": "biochemical", "conditions": "USP1/UAF1 25 pM, Ub-Rh110 25 nM, 30 min preincubation", "in_short": "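Ub-Rh110 (25 nM, ≪Km) cleavage read at ex 485/em 535 in Tris pH 8.0, CaCl2, GSH, Prionex, Triton X-100. The screen used 10 µM compound, 100 pM USP1/UAF1 and 45 min at RT.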"}
{"compound": "CC(=O)N1CCCC(c2ccn(-c3ccc(Cn4c(=O)[nH]c5cnc(-c6ccccc6C(C)C)nc54)cc3)n2)C1", "note": "(stereo not drawn) [Compound I-468, 9-(4-(3-(1-acetylpiperidin-3-yl)-1H-pyrazol-1-yl)benzyl)-2-(2-isopropylphenyl)-7,9-dihydro-8H-purin-8-one]", "values": [{"measurement": "IC50", "value": "< 50", "unit": "nM"}]}
{"compound": "Cc1cc(C(=O)Nc2ccc(Cn3c(=O)n(C)c4cnc(-c5ccccc5C(C)C)nc43)cc2)n(C)n1", "note": "[Compound I-469, N-(4-((2-(2-isopropylphenyl)-7-methyl-8-oxo-7,8-dihydro-9H-purin-9-yl)methyl)phenyl)-1,3-dimethyl-1H-pyrazole-5-carboxamide]", "values": [{"measurement": "IC50", "value": "200 to 2000", "unit": "nM"}]}
{"compound": "Cc1cc(C(=O)N(C)c2ccc(Cn3c(=O)n(C)c4cnc(-c5ccccc5C(C)C)nc43)cc2)n[nH]1", "note": "[Compound I-470, N-(4-((2-(2-isopropylphenyl)-7-methyl-8-oxo-7,8-dihydro-9H-purin-9-yl)methyl)phenyl)-N,5-dimethyl-1H-pyrazole-3-carboxamide]", "values": [{"measurement": "IC50", "value": "> 2000", "unit": "nM"}]}
{"compound": "Cc1cc(C(=O)N(C)c2ccc(Cn3c(=O)n(C)c4cnc(-c5ccccc5C(C)C)nc43)cc2)n(C)n1", "note": "[Compound I-471, N-(4-((2-(2-isopropylphenyl)-7-methyl-8-oxo-7,8-dihydro-9H-purin-9-yl)methyl)phenyl)-N,1,3-trimethyl-1H-pyrazole-5-carboxamide]", "values": [{"measurement": "IC50", "value": "> 2000", "unit": "nM"}]}
{"compound": "CC(=O)N1CCC(c2cn(C)c(-c3ccc(Cn4c(=O)[nH]c5cnc(-c6ccccc6C(C)C)nc54)cc3)n2)CC1", "note": "[Compound I-472, 9-(4-(4-(1-acetylpiperidin-4-yl)-1-methyl-1H-imidazol-2-yl)benzyl)-2-(2-isopropylphenyl)-7,9-dihydro-8H-purin-8-one]", "values": [{"measurement": "IC50", "value": "< 50", "unit": "nM"}]}
{"compound": "CC(=O)N1CCC(c2cnc(-c3ccc(Cn4c(=O)[nH]c5cnc(-c6ccccc6C(C)C)nc54)cc3)n2C)CC1", "note": "[Compound I-473, 9-(4-(5-(1-acetylpiperidin-4-yl)-1-methyl-lH-imidazol-2-yl)benzyl)-2-(2-isopropylphenyl)-7,9-dihydro-8H-purin-8-one]", "values": [{"measurement": "IC50", "value": "< 50", "unit": "nM"}]}
{"compound": "CC(=O)N1CCC(c2ccn(-c3ccc(Cn4c(=O)[nH]c5cnc(-c6c(F)cccc6C(C)C)nc54)cc3)n2)CC1", "note": "[Compound I-474, 9-(4-(3-(1-acetylpiperidin-4-yl)-1H-pyrazol-1-yl)benzyl)-2-(2-fluoro-6-isopropylphenyl)-7,9-dihydro-8H-purin-8-one]", "values": [{"measurement": "IC50", "value": "< 50", "unit": "nM"}]}
{"compound": "CC(C)C(=O)N1CCC(F)(Cn2c(=O)[nH]c3cnc(-c4ccccc4C(C)C)nc32)CC1", "note": "[Compound I-475, 9-((4-fluoro-1-isobutyrylpiperidin-4-yl)methyl)-2-(2-isopropylphenyl)-7,9-dihydro-8H-purin-8-one]", "values": [{"measurement": "IC50", "value": "> 2000", "unit": "nM"}]}
{"compound": "CC(=O)N1CC(n2cc(C(F)(F)F)nc2-c2ccc(Cn3c(=O)[nH]c4cnc(-c5ccccc5C(C)C)nc43)cc2)C1", "note": "[Compound I-476, 9-(4-(1-(1-acetylazetidin-3-yl)-4-(trifluoromethyl)-1H-imidazol-2-yl)benzyl)-2-(2-isopropylphenyl)-7,9-dihydro-8H-purin-8-one]", "values": [{"measurement": "IC50", "value": "< 50", "unit": "nM"}]}
{"compound": "CC(=O)N1CC(n2cc(C(F)(F)F)nc2-c2ccc(Cn3c(=O)[nH]c4cnc(-c5cccnc5C(C)C)nc43)cc2)C1", "note": "[Compound I-477, 9-(4-(1-(1-acetylazetidin-3-yl)-4-(trifluoromethyl)-1H-imidazol-2-yl)benzyl)-2-(2-isopropylpyridin-3-yl)-7,9-dihydro-8H-purin-8-one]", "values": [{"measurement": "IC50", "value": "< 50", "unit": "nM"}]}
{"compound": "CC(C)NC(=O)N1CCC(Cn2c(=O)n(C)c3cnc(-c4ccccc4C(C)C)nc32)CC1", "note": "[Compound I-478, N-isopropyl-4-((2-(2-isopropylphenyl)-7-methyl-8-oxo-7,8-dihydro-9H-purin-9-yl)methyl)piperidine-1-carboxamide]", "values": [{"measurement": "IC50", "value": "> 2000", "unit": "nM"}]}
{"compound": "CC(C)c1ccccc1-c1ncc2c(n1)n(CC1CCN(C(=O)NC3CC3)CC1)c(=O)n2C", "note": "[Compound I-479, N-cyclopropyl-4-((2-(2-isopropylphenyl)-7-methyl-8-oxo-7,8-dihydro-9H-purin-9-yl)methyl)piperidine-1-carboxamide]", "values": [{"measurement": "IC50", "value": "> 2000", "unit": "nM"}]}
